Consider 16 compounds from PubChem BioAssay (NCI).

Common to all, as to assay: DTP human tumour cell line panel, 48 h
For test [1], the system named is OVCAR-5 ovarian.
In test [2] the test system is ACHN renal.
Test [3] has as its system KM12 colon.
Test [4] concerns SW-620 colon.
In test [5] the test system is OVCAR-8 ovarian.
For test [6], the system named is UACC-257 melanoma.
Test [7] has as its system HCT-15 colon.
The subject of test [8] is PC-3 prostate.
In test [9] the test system is MCF7 breast.
Test [10] deals with BT-549 breast.

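Results reflect a 48-hour exposure of cells in 96-well plates to compound at five concentrations. The concentration for 50% growth inhibition is given as GI50. TGI: total growth inhibition.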 A value given as a limit tells only on which side of the number the result lay.

As usually defined, the TGI is the concentration at which net growth stops. Turning to `COC(=O)C(=NNc1ccccc1[N+](=O)[O-])C(=O)OC`, the TGI in test [1], in [2], in [3], in [4], in test [5] and in test [6] was greater than 100 µM each time.
Consider `CN1C(c2ccccc2)CC(C)(O)CC1c1ccccc1` (centres undefined), for which the TGI in test [1], in test [7], in test [2], in test [3], in test [4] and in [5] was greater than 100 µM each time. For the same compound, in [6], the TGI was greater than 100 µM.
One may read the GI50 as the concentration that inhibits growth by half. With `CCC1=C[C@@H]2CN(C1)Cc1c([nH]c3ccccc13)[C@@](C(=O)OC)(c1cc3c(cc1OC)N(C)[C@H]1[C@@](O)(C(=O)OC)[C@H](OC(C)=O)[C@]4(CC)C=CCN5CC[C@]31[C@@H]54)C2`, the GI50 in test [1] was less than 0.01 µM; in test [7] it was 0.141 µM; in [2], 0.194 µM; in [4], less than 0.01 µM; in test [5], less than 0.0213 µM; in test [8], less than 0.01 µM. Also, the results for the GI50 in test [9] and in test [10] were less than 0.01 µM and less than 0.0107 µM, respectively. Besides, the TGI was found to be 27.2 µM in test [1]; 6.8 µM in test [7]; 25.6 µM in [2]; 17.9 µM in test [4]; 25.6 µM in test [5]; 21.8 µM in test [8]. For the same compound, the TGI worked out at 11.5 µM in test [9] and 8.82 µM in test [10].
On to `CCC(C)C(=O)O[C@H]1C(=O)O[C@@H]2C[C@H]3C(C)=CC(=O)[C@@H](O)[C@]3(C)[C@H]3[C@@H](O)[C@H](O)[C@@]4(C)OC[C@]32[C@@H]14` (some centres undefined), for which the TGI in [1] was 0.0942 µM; in test [7], 0.071 µM; in test [2], 0.566 µM; in test [3], 0.138 µM; in test [4], 0.28 µM; in test [5] it was less than 0.0302 µM. Besides, the TGI was 0.0143 µM in test [8], less than 0.01 µM in test [6] and less than 0.01 µM in test [9].
In the case of `Cc1cc(Cl)ccc1NC(=O)CC1SC(=NC(=O)c2ccccc2Cl)NC1=O` (centres undefined), the TGI in [1] was 84 µM; in test [7], 33.1 µM; in test [2], 30.8 µM; in [4], 32.3 µM; in [5] it was greater than 100 µM; in test [6], 38.6 µM.
`N#CC(C(=O)/C(=N/NC(=O)c1ccccc1O)C(C#N)c1ccc(Br)cc1)c1ccc(Br)cc1` (centres undefined): the TGI in [1] is 29.1 µM; in [7], 25.5 µM; in test [2], 26.7 µM; in [3], 25.5 µM; in test [4] it was 18.1 µM; in test [5], 19.8 µM. Moreover, the TGI in [6] was found to be 29.5 µM.
On to `N#CCCN(C1=NN(C(=O)CC(=O)Nc2ccc(Cl)cc2)C(c2ccccc2)C1)c1ccc(Cl)cc1` (centres undefined), for which the total growth inhibition concentration (TGI) in test [1], in [7], in [2], in test [3], in test [4] and in test [5] was greater than 100 µM each time. In [6], this compound came in with a TGI greater than 100 µM.
Consider `CC(=O)n1nnc2ccc([N+](=O)[O-])cc21`, for which the TGI in test [1], in [2], in [3], in test [4], in [5] and in test [6] was greater than 100 µM each time.
As for `N#CC(C#N)=Cc1ccc(C(O)P(=O)(O)O)cc1` (centres undefined), the TGI in test [1], in test [7], in [2], in test [3], in test [4] and in test [5] was greater than 100 µM each time. This compound also had a total growth inhibition concentration (TGI) in test [6] greater than 100 µM.
On to `O=CC1CCC=CC1NC(=O)OCc1ccccc1` (centres undefined), for which the total growth inhibition concentration (TGI) in [1] was greater than 100 µM; in [7] it was greater than 100 µM; in test [2], greater than 100 µM; in test [3], greater than 100 µM; in [4] it was greater than 100 µM; in test [5], 52.3 µM. In test [6], the TGI was greater than 100 µM.
Take `Cn1cnc([N+](=O)[O-])c1Sc1nc2ccccc2o1`: the TGI in test [1] was 19.4 µM; in [7], 11.2 µM; in [2], 24.9 µM; in test [3], 20.5 µM; in test [4], 14.3 µM; in test [5] it was 10 µM. Moreover, the concentration for total growth inhibition (TGI) in test [6] was 19.8 µM.
Consider `Cc1ccc(C(=O)C(c2nc3n(c2O)C(=N)N=N3)c2nc3n(c2O)C(=N)N=N3)cc1` (centres undefined), for which the TGI in test [1], in [7], in test [2], in test [3], in test [4] and in [5] was greater than 100 µM throughout. Also, the TGI in [6] was greater than 100 µM.
For the compound `Cc1ccccc1C=NC12CC3CC(CC(C3)C1)C2`, the TGI in test [1], in test [7], in test [2], in test [3], in [4] and in test [5] was greater than 100 µM throughout. Further, the concentration for total growth inhibition (TGI) in test [6] is greater than 100 µM.
Regarding `CC12CC/C(=N/NC(N)=O)C3C1CCCC32`, the TGI in test [7], in [2], in test [3], in test [4], in [5] and in test [6] was greater than 100 µM in each case.
In the case of `CCc1cccc(C)c1N1C(=O)C(=O)C(c2nc3ccccc3o2)/C(=N/NC(=S)NN)C1=O` (centres undefined), the concentration for total growth inhibition (TGI) in [1], in [7], in test [2], in test [3], in [4] and in test [5] was greater than 100 µM each time. This compound had a TGI in test [6] greater than 100 µM.
On to `N#CC(C(=O)CCC(=O)Nc1ccc(Cl)cc1)c1ccc(Cl)cc1` (centres undefined), for which the TGI in test [1], in [7], in [2], in test [3], in test [4] and in test [5] was greater than 100 µM each time. This compound gave a TGI in test [6] greater than 100 µM.
